Results as given in US6737383B1, “Herbicidal oxadiazolidines” (priority 1999, dated 2004).

How the values were obtained:
[1] = system: crabgrass; assay: Test B pre/postemergence crabgrass; type: in vivo, Digitaria sanguinalis
Method in brief: (§1)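 Test chemicals in a non-phytotoxic solvent mixture with surfactant were sprayed preemergence onto planted seeds and postemergence onto plants 2 to 18 cm tall (1- to 4-leaf stage). After twelve to sixteen days in a greenhouse, injury was visually rated against untreated controls from 0 (no effect) to 10 (complete control).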

[2] = system: velvetleaf; assay: Test B pre/postemergence velvetleaf; type: in vivo, Abutilon theophrasti
Method in brief: as §1

[3] = system: blackgrass; assay: Test B pre/postemergence blackgrass; type: in vivo, Alopecurus myosuroides
Method in brief: as §1

[4] = system: corn; assay: Test B pre/postemergence corn; type: in vivo, Zea mays
Method in brief: as §1

[5] = system: bedstraw; assay: Test B pre/postemergence bedstraw; type: in vivo, Galium aparine; conditions: Preemergence
Method in brief: as §1

[6] = system: soybean; assay: Test B pre/postemergence soybean; type: in vivo, Glycine max
Method in brief: as §1

[7] = system: wheat; assay: Test B pre/postemergence wheat; type: in vivo, Triticum aestivum
Method in brief: as §1

[8] = system: giant foxtail; assay: Test B pre/postemergence giant foxtail; type: in vivo, Setaria faberii
Method in brief: as §1

[9] = system: sugar beet; assay: Test B pre/postemergence sugar beet; type: in vivo, Beta vulgaris
Method in brief: as §1

[10] = system: cocklebur; assay: Test B pre/postemergence cocklebur; type: in vivo, Xanthium strumarium
Method in brief: as §1

[11] = system: pigweed; assay: Test B pre/postemergence pigweed; type: in vivo, Amaranthus retroflexus
Method in brief: as §1

[12] = system: wild oat; assay: Test B pre/postemergence wild oat; type: in vivo, Avena fatua
Method in brief: as §1

[13] = system: rape; assay: Test B pre/postemergence rape; type: in vivo, Brassica napus
Method in brief: as §1

[14] = system: morningglory; assay: Test B pre/postemergence morningglory; type: in vivo, Ipomoea hederacea
Method in brief: as §1

[15] = system: purple nutsedge; assay: Test B pre/postemergence purple nutsedge; type: in vivo, Cyperus rotundus
Method in brief: as §1

[16] = system: surinam grass; assay: Test B pre/postemergence surinam grass; type: in vivo, Brachiaria decumbens
Method in brief: as §1

[17] = Postemergence, Rate 62 g/ha, scale 0 to 10, 0 is no effect, 10 is complete control
[18] = Postemergence, Rate 125 g/ha, scale of 0 to 10 where 0 is no effect and 10 is complete control
[19] = Postemergence, Rate 250 g/ha, scale of 0 to 10, 0 is no effect, 10 is complete control
[20] = Preemergence, Rate 62 g/ha, scale of 0 to 10 where 0 is no effect and 10 is complete control
[21] = Preemergence, Rate 125 g/ha, scale of 0 to 10 where 0 is no effect and 10 is complete control
[22] = Preemergence, Rate 250 g/ha, scale 0 to 10 (0 no effect, 10 complete control)
[23] = Preemergence, Rate 500 g/ha, scale of 0 to 10 where 0 is no effect and 10 is complete control
[24] = Rate 500 g/ha, Postemergence, scale 0 to 10, 0 is no effect, 10 is complete control

CC(C)N(C(=O)n1oc(=O)n(Cc2nnc(Cl)s2)c1=O)c1ccc(Cl)cc1 [Compound 653]
Plant response rating, Crabgrass [1, 17]: 0 | Crabgrass plant response rating [1, 18]: 0 | Crabgrass plant response rating [1, 19]: 0 | Crabgrass plant response rating [1, 20]: 0 | Crabgrass plant response rating [1, 21]: 2 | Plant response rating, Crabgrass [1, 22]: 6 | Plant response rating, Crabgrass [1, 23]: 8 | Crabgrass plant response rating [1, 24]: 2 | Plant response rating, Velvetleaf [2, 17]: 0 | Velvetleaf plant response rating [2, 18]: 0 | Velvetleaf plant response rating [2, 20]: 0 | Velvetleaf plant response rating [2, 21]: 0 | Plant response rating, Velvetleaf [2, 22]: 0 | Plant response rating, Velvetleaf [2, 23]: 0 | Velvetleaf plant response rating [2, 24]: 0 | Plant response rating, Blackgrass [3, 17]: 0 | Blackgrass plant response rating [3, 18]: 0 | Blackgrass plant response rating [3, 19]: 0 | Blackgrass plant response rating [3, 20]: 0 | Blackgrass plant response rating [3, 21]: 0 | Plant response rating, Blackgrass [3, 22]: 0 | Plant response rating, Blackgrass [3, 23]: 0 | Blackgrass plant response rating [3, 24]: 0 | Plant response rating, Corn [4, 17]: 0 | Corn plant response rating [4, 18]: 0 | Corn plant response rating [4, 19]: 0 | Corn plant response rating [4, 20]: 0 | Corn plant response rating [4, 21]: 0 | Plant response rating, Corn [4, 22]: 0 | Plant response rating, Corn [4, 23]: 0 | Corn plant response rating [4, 24]: 0 | Bedstraw plant response rating ([5]; Rate 62 g/ha, scale of 0 to 10 where 0 is no effect and 10 is complete control): 0 | Bedstraw plant response rating ([5]; Rate 125 g/ha, scale of 0 to 10 where 0 is no effect and 10 is complete control): 0 | Plant response rating, Bedstraw ([5]; Rate 250 g/ha, scale 0 to 10 (0 no effect, 10 complete control)): 0 | Plant response rating, Bedstraw ([5]; Rate 500 g/ha, scale of 0 to 10 where 0 is no effect and 10 is complete control): 0 | Plant response rating, Soybean [6, 17]: 0 | Soybean plant response rating [6, 18]: 0 | Soybean plant response rating [6, 20]: 0 | Soybean plant response rating [6, 21]: 0 | Plant response rating, Soybean [6, 22]: 0 | Plant response rating, Soybean [6, 23]: 0 | Soybean plant response rating [6, 24]: 0 | Plant response rating, Wheat [7, 17]: 0 | Wheat plant response rating [7, 18]: 0 | Wheat plant response rating [7, 20]: 0 | Wheat plant response rating [7, 21]: 0 | Plant response rating, Wheat [7, 22]: 0 | Plant response rating, Wheat [7, 23]: 0 | Wheat plant response rating [7, 24]: 0 | Plant response rating, Giant foxtail [8, 17]: 0 | Giant foxtail plant response rating [8, 18]: 0 | Giant foxtail plant response rating [8, 19]: 2 | Giant foxtail plant response rating [8, 20]: 0 | Giant foxtail plant response rating [8, 21]: 0 | Plant response rating, Giant foxtail [8, 22]: 2 | Plant response rating, Giant foxtail [8, 23]: 8 | Giant foxtail plant response rating [8, 24]: 7 | Plant response rating, Sugarbeets [9, 17]: 0 | Sugarbeets plant response rating [9, 18]: 0 | Sugarbeets plant response rating [9, 20]: 0 | Sugarbeets plant response rating [9, 21]: 0 | Plant response rating, Sugarbeets [9, 22]: 0 | Plant response rating, Sugarbeets [9, 23]: 0 | Sugarbeets plant response rating [9, 24]: 0 | Plant response rating, Cocklebur [10, 17]: 0 | Cocklebur plant response rating [10, 18]: 0 | Cocklebur plant response rating [10, 19]: 0 | Cocklebur plant response rating [10, 20]: 0 | Plant response rating, Cocklebur [10, 22]: 0 | Plant response rating, Cocklebur [10, 23]: 0 | Cocklebur plant response rating [10, 24]: 0 | Plant response rating, Redroot pigweed [11, 17]: 0 | Redroot pigweed plant response rating [11, 18]: 0 | Redroot pigweed plant response rating [11, 20]: 0 | Redroot pigweed plant response rating [11, 21]: 0 | Plant response rating, Redroot pigweed [11, 22]: 0 | Plant response rating, Redroot pigweed [11, 23]: 3 | Redroot pigweed plant response rating [11, 24]: 0 | Plant response rating, Wild oats [12, 17]: 0 | Wild oats plant response rating [12, 18]: 0 | Wild oats plant response rating [12, 20]: 0 | Wild oats plant response rating [12, 21]: 0 | Plant response rating, Wild oats [12, 22]: 0 | Plant response rating, Wild oats [12, 23]: 2 | Wild oats plant response rating [12, 24]: 0 | Plant response rating, Rape [13, 17]: 0 | Rape plant response rating [13, 18]: 0 | Rape plant response rating [13, 20]: 0 | Rape plant response rating [13, 21]: 0 | Plant response rating, Rape [13, 22]: 0 | Plant response rating, Rape [13, 23]: 0 | Rape plant response rating [13, 24]: 0 | Plant response rating, Morningglory [14, 17]: 0 | Morningglory plant response rating [14, 18]: 1 | Morningglory plant response rating [14, 19]: 1 | Morningglory plant response rating [14, 20]: 0 | Morningglory plant response rating [14, 21]: 0 | Plant response rating, Morningglory [14, 22]: 0 | Plant response rating, Morningglory [14, 23]: 0 | Morningglory plant response rating [14, 24]: 1 | Plant response rating, Nutsedge [15, 17]: 0 | Nutsedge plant response rating [15, 18]: 0 | Nutsedge plant response rating [15, 20]: 0 | Plant response rating, Nutsedge [15, 23]: 0 | Nutsedge plant response rating [15, 24]: 0 | Plant response rating, B. signalgrass [16, 17]: 0 | Plant response rating, B. signalgrass [16, 18]: 0 | B. signalgrass plant response rating [16, 19]: 0 | B. signalgrass plant response rating [16, 20]: 0 | B. signalgrass plant response rating [16, 21]: 0 | Plant response rating, B. signalgrass [16, 22]: 0 | Plant response rating, B. signalgrass [16, 23]: 0 | B. signalgrass plant response rating [16, 24]: 2
